This is an account of results in ChEMBL document CHEMBL2396612 (Bioorg Med Chem Lett, 2013).

The species entered for one experiment is Homo sapiens. In words: Selectivity index, ratio of IC50 for ACAT1 (unknown origin) to IC50 for ACAT2 (unknown origin).
Experiment [1] has as its target T1, Sterol O-acyltransferase 2 (Homo sapiens, UniProt O75908).
T1 sequence (O75908 whole entry): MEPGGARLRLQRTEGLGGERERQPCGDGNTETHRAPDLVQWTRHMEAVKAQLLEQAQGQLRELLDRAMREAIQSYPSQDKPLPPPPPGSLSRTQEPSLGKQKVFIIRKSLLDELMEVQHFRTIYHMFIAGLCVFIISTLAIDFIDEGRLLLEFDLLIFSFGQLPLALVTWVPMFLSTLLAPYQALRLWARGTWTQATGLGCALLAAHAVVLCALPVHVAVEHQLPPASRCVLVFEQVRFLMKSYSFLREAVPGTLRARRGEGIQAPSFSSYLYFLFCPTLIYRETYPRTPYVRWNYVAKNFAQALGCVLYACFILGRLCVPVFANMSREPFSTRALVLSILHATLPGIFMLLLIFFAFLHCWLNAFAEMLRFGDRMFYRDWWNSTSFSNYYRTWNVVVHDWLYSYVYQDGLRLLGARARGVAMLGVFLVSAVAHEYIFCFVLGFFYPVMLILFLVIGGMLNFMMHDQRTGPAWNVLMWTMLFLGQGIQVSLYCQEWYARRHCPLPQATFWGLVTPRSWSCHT
In words: Inhibition of ACAT2 (unknown origin).

Experiment [2] addresses T2, Sterol O-acyltransferase 1 (Homo sapiens, UniProt P35610).
T2 sequence (P35610 whole entry): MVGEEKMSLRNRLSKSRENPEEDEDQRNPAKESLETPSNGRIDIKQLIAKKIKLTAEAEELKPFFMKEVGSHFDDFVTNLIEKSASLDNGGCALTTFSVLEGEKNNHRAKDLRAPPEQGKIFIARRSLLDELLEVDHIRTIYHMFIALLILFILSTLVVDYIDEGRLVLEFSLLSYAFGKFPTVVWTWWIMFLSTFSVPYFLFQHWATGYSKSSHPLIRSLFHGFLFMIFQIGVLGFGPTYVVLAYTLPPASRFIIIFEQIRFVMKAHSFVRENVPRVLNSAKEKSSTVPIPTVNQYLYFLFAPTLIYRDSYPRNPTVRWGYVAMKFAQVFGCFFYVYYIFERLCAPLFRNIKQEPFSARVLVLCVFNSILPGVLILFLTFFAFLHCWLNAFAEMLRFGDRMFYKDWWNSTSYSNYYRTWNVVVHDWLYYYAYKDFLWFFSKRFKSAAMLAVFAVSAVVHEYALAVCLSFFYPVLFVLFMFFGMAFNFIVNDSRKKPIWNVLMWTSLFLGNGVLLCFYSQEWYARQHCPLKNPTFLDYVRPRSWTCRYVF
Put plainly: Inhibition of ACAT1 (unknown origin).

The structures appear in SMILES notation.

As to `Cc1cccc(C)c1[C@@H]1OC[C@@]2(C)[C@@H]3C[C@H](OC(=O)c4ccc(C#N)cc4)[C@@]4(C)Oc5cc(-c6cccnc6)oc(=O)c5[C@H](O)[C@@H]4[C@@]3(C)CC[C@@H]2O1`, in the experiment filed under Homo sapiens, the Ratio IC50 was more than 9920. In addition, the IC50 in experiment [1] is 7.2 nM; in experiment [2], more than 71200 nM.
As to `CCCCC(=O)O[C@H]1C[C@H]2[C@]3(C)CO[C@@H](c4ccccc4C)O[C@H]3CC[C@]2(C)[C@H]2[C@@H](O)c3c(cc(-c4cccnc4)oc3=O)O[C@]12C`, the Ratio IC50 in the experiment listed under Homo sapiens was 320. The IC50 in experiment [1] came out at 10 nM; in experiment [2], 3200 nM.
